# Data reported in article PMC7018972, “Novel and selective inactivators of Triosephosphate isomerase with anti-trematode activity” (Scientific Reports, 2020).
# Where two headings read alike, the source gives them in different places.
# Assays:
# [1] = target: Fasciola hepatica TIM (FhTIM) (Fasciola hepatica, UniProt S4UI50); experiment: Inhibition of recombinant FhTIM, coupled enzyme assay; format: biochemical
# Summary of the method: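 E. coli-expressed FhTIM preincubated with compound 1 h at 37 °C in 100 mM triethanolamine, 10 mM EDTA, pH 7.4, 10% DMSO. Aliquot diluted into coupled assay (1 mM glyceraldehyde-3-phosphate, 0.2 mM NADH, α-glycerol phosphate dehydrogenase, pH 7.4) with NADH decrease at 340 nm, 38 °C. Triplicate, two independent experiments.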
# [2] = target: FhTIM (Fasciola hepatica, UniProt S4UI50); experiment: Microscale thermophoresis (MST) binding to FhTIM; settings: 24 °C
# FhTIM, sequence (S4UI50 entry or part of it): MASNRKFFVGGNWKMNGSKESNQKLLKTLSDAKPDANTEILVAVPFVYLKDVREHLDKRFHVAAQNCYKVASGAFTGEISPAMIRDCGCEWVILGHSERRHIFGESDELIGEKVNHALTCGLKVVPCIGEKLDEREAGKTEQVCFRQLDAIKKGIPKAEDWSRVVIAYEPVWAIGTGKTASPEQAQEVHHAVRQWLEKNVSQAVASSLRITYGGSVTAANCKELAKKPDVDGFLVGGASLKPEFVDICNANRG
# Protocol: MST experiments were performed according to the NanoTemper technologies protocol in a Monolith NT.115 (red/blue) instrument (NanoTemper Technologies, München, Germany[36]). With this technique, the diffusion behavior of a labeled protein is measured when an infrared light excites the movement of the protein in capillaries. This behavior is the combination of two effects: the fast, local environment-dependent responses of the fluorophore to the temperature jump and the slower diffusive thermophoresis fluorescence changes. It will be modified when the protein is complexed with increasing amounts of unlabeled partners, leading to titration curves that can be fit for Kd estimation. In practice, FhTIM was labeled with the Monolith His-Tag Labeling Kit RED-tris-NTA (NanoTemper Technologies, München, Germany), as described by the manufacturer. The experiments were performed using 20% and 40% MST power and between 20–80% LED power at 24 °C. The MST traces were recorded using the standard parameters: 5 s MST power off, 30 s MST power on, and 5 s MST power off. The compounds were used at high concentrations (around 5 mM) in the bindings check assay with DMSO at 5% v/v. If the binding check was positive, then the affinity determination was performed with the same experimental settings, with serial 2x dilutions of the compound of interest.
# [3] = test system: newly excysted juvenile (NEJ) F. hepatica; experiment: In vitro NEJ treatment; format: cell-based, Fasciola hepatica; settings: Fasciola hepatica, NEJ
# Protocol: F. hepatica metacercariae were acquired from DILAVE, MGAP, Uruguay. NEJ were obtained by in vitro excystement as previously described with minor modifications. Briefly, metacercariae were incubated with 1% sodium hypochlorite for 5 min at room temperature to remove the outer cyst wall and then washed exhaustively with PBS 200 U/mL Penicillin G sulfate, […] streptomycin sulfate, 500 ng/mL amphotericin B, 10 mM HEPES, counted and divided into groups of around 20 parasites that were transferred to 12 wells tissue culture plates. Parasites were maintained at 37 °C, 5% CO2 in modified Basch’s medium. At day 1, compounds were added at the indicated concentrations and 0.5% DMSO was added to control groups; each condition was tested in duplicate. NEJ behavior was monitored under a light microscope (Olympus BX41), every day each well was recorded for a minute in order to assess parasite motility and registered using the following score: 3- normally active; 2- reduced activity (sporadic movement); 1- immotile (dead)[48].
# [4] = test system: S. mansoni somules; experiment: S. mansoni somules phenotypic screen in vitro; format: cell-based, Schistosoma mansoni; settings: for SOMULES SEVERITY SCORE: Table 2S, 10 uM
# From the text: (§1) The NMRI isolate of S. mansoni was maintained by passage through Biomphalaria glabrata snails and 3–5 week-old, female Golden Syrian hamsters (Charles River, San Diego, CA) as intermediate and definite hosts, respectively. A dose of 600 infective larvae (cercariae) was used to infect hamsters. The acquisition, preparation and in vitro maintenance of S. mansoni post-infective larvae (schistosomula or somules) and adults have been already described[5],[50],[51]. Vertebrate animal maintenance and handling at the University of California San Diego Animal Care Facility were in accordance with protocols approved by the university’s Institutional Animal Care and Use Committee (IACUC).
# Phenotypic screens with somules were performed as described[5],[50],[51]. Initially, 100 μL Basch medium, 100 U/ml penicillin, […] streptomycin, 4% heat-inactivated FBS (Corning Mediatech) and 1 μl compound in DMSO were added to clear, 96-well round-bottomed plates (Costar cat.# 3367). Then, 100 μL of the same medium containing 40–50 somules was added to mix the compound with somules (final concentration of DMSO was 0.5%). Assay plates were placed into plastic boxes humidified with wet tissue and then incubated at 37 °C in a 5% CO2 environment. Somules phenotypes were recorded every 24 h up to 72 h using an inverted microscope (Zeiss Axiovert 40 C).
# (§2) Schistosome phenotypic responses were recorded employing a series of ‘descriptors,’ such as rounding, degeneration, overactivity, loss of translucency and changes in motility, as described previously[5],[50],[51],[53]. To allow for comparisons of compound activity, each descriptor was awarded a value of 1 and these were added up to a maximum ‘severity score’ of 4. Evidence of degeneracy or death was awarded the maximum score of 4. Scores were averaged across duplicate wells for each compound (see details in the supporting information).
# [5] = test system: S. mansoni adults; experiment: S. mansoni adults phenotypic screen ex vivo; format: cell-based, Schistosoma mansoni; settings: Table 2S, 5 uM
# From the text: as §1
# Phenotypic screens with 42-day-old, adult parasites were performed in 24-well plates (Costar cat.# 3526) containing the above medium and approximately five adult males and two females per well. Compound was added in a volume of up to 1 μL DMSO at a concentration of 5 µM (0.05% DMSO final). Assay plates were incubated at 37 °C in a 5% CO2 environment. Parasite phenotypes were recorded at 4, 8 and 24 h using a Zeiss Axiovert 40 C.
# as §2
# [6] = Figure 1, ranges of inhibitory activity, read-out: IC50 range
# [7] = recombinant FhTIM, 1 h incubation with compound at 37 °C, read-out: IC50
# [8] = Table 1S, screening of 340 compounds in FhTIM, table head prints no unit, µM per b8/b9, read-out: IC50
# Fasciola hepatica TIM (FhTIM), sequence (S4UI50 entry or part of it): as above
SMILES,"IC50 [1, 8] [µM]",also measured
O=C1C(=Cc2ccc([N+](=O)[O-])s2)C(=O)N(Cc2ccccc2)S(=O)(=O)N1Cc1ccccc1 [Compound 114],,"IC50 [1, 6]: < 50 µM; IC50 [1, 7]: 25 ± 8 µM; Kd [2]: 664 ± 25 µM; IC50 ([3]; incubation time 4 h): 6.5 ± 0.6 µM; S. mansoni somules severity score ([4]; Table 2, 72 h, score 0 to maximum 4): 4 (72 h); SOMULES SEVERITY SCORE ([4]; 24 h): 0; SOMULES SEVERITY SCORE ([4]; 48 h): 3; SOMULES SEVERITY SCORE ([4]; 3d): 4"
C=CCN1C(=O)CSC1=NN=Cc1ccc2c(c1)[n+]([O-])c(-c1ccccc1)c(C(=O)Nc1ccccc1)[n+]2[O-] [Compound 303],> 100,ADULTS SEVERITY SCORE ([5]; 4 h): 0; ADULTS SEVERITY SCORE ([5]; 8 h): 0; ADULTS SEVERITY SCORE ([5]; 24 h): 0; SOMULES SEVERITY SCORE ([4]; 24 h): 0; SOMULES SEVERITY SCORE ([4]; 48 h): 4; SOMULES SEVERITY SCORE ([4]; 3d): 4
C=CCNC(=S)NN=Cc1ccc2c(c1)[n+]([O-])c(C(=O)Nc1ccccc1)c(C)[n+]2[O-] [Compound 490],> 100,SOMULES SEVERITY SCORE ([4]; 24 h): 0; SOMULES SEVERITY SCORE ([4]; 48 h): 0; SOMULES SEVERITY SCORE ([4]; 3d): 0
COc1cc(/C=C/C(=O)CC(=O)/C=C/c2ccc(O)c(OC)c2)ccc1O [Compound 906],,"IC50 ([1]; IC50 (µM), recombinant FhTIM, 1 h incubation with compound at 37 °C): 35 ± 4 µM; IC50 ([1]; IC50 range, Figure 1, ranges of inhibitory activity): < 50 µM; IC50 ([3]; incubation time 4 h): 7 ± 1 µM"
CCOC(=O)c1cc2c(n1CC)C(=O)C(Oc1ccc(Cl)cc1)=CC2=O [Compound 1129],> 100,
C=CCn1c(C)csc1=NN=Cc1ccc(S(=O)(=O)O)o1 [Compound 1130],> 100,
C=CCn1c(-c2ccc(OC)cc2)csc1=NN=CC=Cc1cccs1 [Compound 1133],> 100,
C=CCN1C(=O)CSC1=NN=CC=Cc1cccs1 [Compound 1138],> 100,
C=CCN1C(=O)C(CC(=O)O)SC1=NN=Cc1cccs1 (stereo not drawn) [Compound 1139],50 to 100,
C(=Cc1ccco1)C=NN=CC=Cc1ccco1 [Compound 1140],> 100,
[Se]=C(NCCN1CCOCC1)NN=CC=Cc1ccco1 [Compound 1147],50 to 100,
CCCCN1C(=O)C(=Cc2ccc([N+](=O)[O-])s2)C(=O)N(CCCC)S1(=O)=O [Compound 1148],,"IC50 [1, 6]: < 50 µM; IC50 [1, 7]: 15 ± 5 µM; IC50 ([3]; incubation time 4 h): 12 ± 2 µM; SOMULES SEVERITY SCORE ([4]; 24 h): 0; SOMULES SEVERITY SCORE ([4]; 48 h): 1; SOMULES SEVERITY SCORE ([4]; 3d): 0"
Nc1ccc2nc3ccc(F)cc3nc2c1 [Compound 1149],,"IC50 [1, 7]: 50 ± 6 µM"
CCCCN1C(=O)C(=Cc2ccc([N+](=O)[O-])cc2)C(=O)N(CCCC)S1(=O)=O [Compound 1165],> 100,
Nc1ccc([N+](=O)[O-])cc1 [Compound 1196],> 100,
[O-][n+]1onc2ccccc21 [Compound 1197],> 100,
O=C(C=Cc1ccc2ccccc2c1)c1c(O)ccc2ccccc12 [Compound 1254],,"IC50 [1, 7]: 50 ± 5 µM; SOMULES SEVERITY SCORE ([4]; 24 h): 0; SOMULES SEVERITY SCORE ([4]; 48 h): 2; SOMULES SEVERITY SCORE ([4]; 3d): 0"
CC(=NN=c1[nH]c(C(=O)O)cs1)C1CCC2C3CC=C4CC(O)CCC4(C)C3CCC12C (stereo not drawn) [Compound 1258],> 100,
CC12CCC(O)CC1=CCC1C2CCC2(C)C(C(=O)C=Cc3ccccc3Cl)CCC12 (stereo not drawn) [Compound 1259],> 100,
C=CCn1c(-c2ccc(Br)cc2)csc1=NN=C(C)C1CCC2C3CC=C4CC(O)CCC4(C)C3CCC12C (stereo not drawn) [Compound 1272],> 100,
Cc1c(C=NNC(N)=S)no[n+]1[O-] [Compound 1283],> 100,
"CS(=O)(=O)c1nc2cc(Oc3cccc(Cl)c3Cl)c(Cl)cc2[nH]1 [Compound 1293, 6-chloro-5-(2,3-dichlorophenoxy)-2-(methylsulfonyl)-1H-benzo[d]imidazole, reference compound]",,IC50 ([3]; incubation time 48 h): 50 µM

# Now from value to molecule, other results behind:
"IC50 [1, 8] [µM]",SMILES,also measured
< 25,O=C1C(=Cc2ccc([N+](=O)[O-])o2)C(=O)N(Cc2ccccc2)S(=O)(=O)N1Cc1ccccc1 [Compound 116],"IC50 [1, 6]: < 50 µM; IC50 [1, 7]: 5 ± 1 µM; IC50 ([3]; incubation time 72 h): > 50 µM"
> 100,Cc1csc(=NN=CC=Cc2ccco2)n1-c1ccccc1 [Compound 1131],
> 100,C(=Cc1ccco1)C=NN=c1scc(-c2ccccc2)n1-c1ccccc1 [Compound 1132],
> 100,C=CCn1c(C)csc1=NN=CC=Cc1ccccc1 [Compound 1135],
> 100,O=C(O)c1csc(=NN=CC=CC=Cc2cccs2)n1-c1ccccc1 [Compound 1136],
50 to 100,C=CCn1c(-c2ccc(Br)cc2)csc1=NN=C/C=C/c1cccs1 [Compound 1137],
> 100,CSc1ccc(C=CC(=O)c2ccc([N+](=O)[O-])cc2)cc1 [Compound 1155],
> 100,Oc1ccccc1CN1N=Cc2ccccc2OB1F [Compound 1198],
50 to 100,Brc1ccc(-c2c[se]c(=NN=CC=Cc3ccccc3)n2CCN2CCOCC2)cc1 [Compound 1222],
50 to 100,O=C1C(=CC=Cc2ccco2)CCC1=CC=Cc1ccco1 [Compound 1223],
> 100,O=C1C(=CC=Cc2cccs2)CCCC1=CC=Cc1cccs1 [Compound 1245],
50 to 100,O=C1C(=CC=Cc2ccccc2)CCC1=CC=Cc1ccccc1 [Compound 1246],
50 to 100,O=C1C(=Cc2ccccc2)CCC1=Cc1ccccc1 [Compound 1247],
> 100,O=C1C(=Cc2cccs2)CCC1=Cc1cccs1 [Compound 1248],
> 100,O=C(NN=Cc1ccccc1O)c1ccc(Cl)cc1 [Compound 1249],
> 100,O=C(NN=Cc1ccccc1O)c1ccccc1Cl [Compound 1250],
> 100,O=C(C=Cc1cccc2ccccc12)c1ccccc1 [Compound 1266],
> 100,O=C(C=Cc1cccc2ccccc12)c1ccccc1O [Compound 1269],
> 100,CC12CCC(O)CC1=CCC1C2CCC2(C)C(C(=O)C=CC=Cc3ccccc3)CCC12 (stereo not drawn) [Compound 1279],
> 100,CC(=O)Nc1ccc(C=C2CN(C)CC(=Cc3ccc(NC(C)=O)cc3)C2=O)cc1 [Compound 1281],
> 100,CN1CC(=CC=Cc2ccco2)C(=O)C(=CC=Cc2ccco2)C1 [Compound 1282],
50 to 100,CN1C/C(=C\C=C\c2ccccc2)C(=O)/C(=C/C=C/c2ccccc2)C1 [Compound 1284],
> 100,CN1CC(=CC=Cc2cccs2)C(=O)C(=CC=Cc2cccs2)C1 [Compound 1285],
> 100,CN1CC(=Cc2ccc(S(=O)(=O)O)o2)C(=O)C(=Cc2ccc(S(=O)(=O)O)o2)C1 [Compound 1286],
